From publication PMC5816626, “A multitarget approach to drug discovery inhibiting Mycobacterium tuberculosis PyrG and PanK” (Scientific Reports, 2018)
In brackets after ≈: the same amount, converted by molar mass. Entries after “also recorded” stand apart in the source; their conditions may differ.

How the values were obtained:
M. tuberculosis H37Ra = assay: microbe, parasite or virus in culture; assay type: cell-based; conditions: Mycobacterium tuberculosis, read-out: Growth inhibition at harvest (OD600)
[1] = target: M. tuberculosis PanK wild type (Mycobacterium tuberculosis, UniProt P9WPA7); assay: biochemical
M. tuberculosis PanK wild type, sequence (P9WPA7 whole entry): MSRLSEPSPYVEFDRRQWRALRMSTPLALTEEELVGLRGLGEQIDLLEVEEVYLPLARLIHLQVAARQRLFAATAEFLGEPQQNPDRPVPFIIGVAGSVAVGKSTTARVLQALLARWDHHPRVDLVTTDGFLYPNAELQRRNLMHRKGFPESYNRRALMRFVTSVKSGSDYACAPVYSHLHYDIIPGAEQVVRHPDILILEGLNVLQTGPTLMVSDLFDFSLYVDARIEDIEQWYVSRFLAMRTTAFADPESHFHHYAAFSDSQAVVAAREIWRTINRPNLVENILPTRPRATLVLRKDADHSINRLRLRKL

M. tuberculosis = test system: M. tuberculosis; set-up: method as in PMID 26097035, PMID 28475832; conditions: known antitubercular activity; cited from earlier work
M. tuberculosis PyrG = test system: M. tuberculosis PyrG; set-up: method as in PMID 26097035, PMID 28475832; conditions: previously identified PyrG inhibitors; cited from earlier work
human cell lines = test system: human cell lines; set-up: method as in PMID 26097035; conditions: cited from earlier work
M. tuberculosis H37Rv = assay: MIC against M. tuberculosis H37Rv (wild type); assay type: cell-based; conditions: Mycobacterium tuberculosis; strain H37Rv
M. tuberculosis PanK = M. tuberculosis PanK (Mycobacterium tuberculosis, UniProt P9WPA7); assay: PanK activity during incubation with prodrug and EthA; assay type: biochemical; conditions: 8 hours of incubation with EthA and NADPH, compound 0.3 mM
M. tuberculosis PanK, sequence (P9WPA7 whole entry): as above

## C[C@H]1COC2(CCN(c3nc(=O)c4cc(C(F)(F)F)cc([N+](=O)[O-])c4s3)CC2)O1 [BTZ043, reference compound]
M. tuberculosis H37Ra
  inhibition at 0.2 µg/mL: 23%

## O=C(CN1CCN(Cc2ccccc2)CC1)Nc1ccc([N+](=O)[O-])cc1C(=O)c1ccccc1 [CDD-823953, N-(2-benzoyl-4-nitrophenyl)-2-(4-benzylpiperazin-1-yl)acetamide]
[1]
  IC50: 250 µM
M. tuberculosis
  MIC: 4.39 µM (≈ 2.01 µg/mL)
M. tuberculosis PyrG
  IC50: 80 µM

## COc1ccc(-c2nnc(SCC(=O)Nc3ccc([N+](=O)[O-])cc3)o2)cc1 [CDD-934506, 2-((5-(4-methoxyphenyl)-1,3,4-oxadiazol-2-yl)sulfanyl)-N-(4-nitrophenyl)acetamide]
[1]
  IC50: 40 µM
M. tuberculosis
  MIC: 0.87 µM (≈ 0.336 µg/mL)
M. tuberculosis PyrG
  PyrG IC50: inactive; also recorded: n. i

## c1ccc(-c2csc(Nc3nc4cc5c(cc4s3)OCO5)n2)nc1 [GSK735826A, N-(4-(pyridin-2-yl)thiazol-2-yl)-(1,3)dioxolo(4′,5′:4,5)benzo(1,2-d)thiazol-6-amine]
M. tuberculosis H37Ra
  inhibition at 0.2 µg/mL: 66%
[1]
  IC50: 70 µM
[1]; competitive inhibitor towards the ATP binding site
  Ki: 65.3 ± 4.33 µM
M. tuberculosis
  MIC: 2.7 µM (≈ 0.957 µg/mL)
M. tuberculosis PyrG
  IC50: 22 µM

## O=C(Cc1ccc(F)cc1)Nc1nc(-c2ccccn2)cs1 [GSK1570606A, 2-(4-fluorophenyl)-N-(4-(pyridin-2-yl)thiazol-2-yl)acetamide]
M. tuberculosis H37Ra
  inhibition at 0.2 µg/mL: 37%
[1]
  PanK IC50: n. i.
M. tuberculosis
  MIC: 9.3 µM (≈ 2.91 µg/mL)
M. tuberculosis PyrG
  IC50: 4.2 µM

## O=C(COc1cccc(F)c1)Nc1nc(-c2ccccn2)cs1 [GSK920684A, 2-(3-fluorophenoxy)-N-(4-(pyridin-2-yl)thiazol-2-yl)acetamide]
M. tuberculosis H37Ra
  inhibition at 0.2 µg/mL: 26%
[1]
  PanK IC50: n. i.
M. tuberculosis PyrG
  IC50: 22 µM

## O=C(CCc1ccccc1)NC(=S)Nc1ccc(N2CCCCC2)cc1 [compound 7904688, 3-phenyl-N-[(4-piperidin-1-ylphenyl)carbamothioyl]propanamide]
Human cell lines
  toxicity against human cell lines: very low toxicity
M. tuberculosis H37Rv
  MIC: 0.5 µg/mL (≈ 1.36 µM)
M. tuberculosis PanK
  loss of PanK activity: more than 90%

## CCc1cc(C(N)=S)ccn1 [Ethionamide, reference compound]
M. tuberculosis H37Rv
  MIC: 1 µg/mL (≈ 6.02 µM)

## Cc1ccc(C(=O)Nc2ccc([N+](=O)[O-])cc2)s1 [compound 7947882, 5-methyl-N-(4-nitrophenyl)thiophene-2-carboxamide]
Human cell lines
  toxicity against human cell lines: very low toxicity
M. tuberculosis H37Rv
  MIC: 0.5 µg/mL (≈ 1.91 µM)
M. tuberculosis PanK
  loss of PanK activity: more than 90%

## CC1=CC=C(C(=O)Nc2ccc([N+](=O)[O-])cc2)S1(=O)=O [compound 11426026]
M. tuberculosis H37Ra
  inhibition at 0.2 µg/mL: 83%
M. tuberculosis H37Rv
  MIC: 1 µg/mL (≈ 3.4 µM)
